Starred links: 1 amine or outer side, 2 acyl side, 3 side chain; linkers in the order of their positions; H or OH if unused. Positions of bridges follow the written chain, without caps; N, C: chain ends. Non-standard residues stand in square brackets, D forms with d. Residues, ends and D or L forms follow the SMILES beside them. Chains are numbered I, II in the order given. Actinocin(9to1) = Cc1c2oc3c(C)ccc(C(=O)[*:1])c3nc-2c(C(=O)[*:2])c(N)c1=O; NMeV = CN[C@H](C(=O)O)C(C)C; Sar = CNCC(=O)O
Assays:
[1] = test system: DNA target AGCTTGGCG; assay: Dissociation of zinc finger phage from its DNA target by actinomycin D; format: binding
Description: (§1) This example describes phage that bound DNA targets with higher affinity in the absence of ligand. These phage were isolated using either: (a) the same method as in example 1.1, or (b) by selection in the absence of small molecule and phage elution from DNA using a small molecule.
(§2) Phage selection is over 4 rounds. Binding reactions contain 10 pmol biotinylated DNA site immobilised on 50 mg streptavidin coated beads (Dynal) and a 1 ml solution of zinc finger phage library (as described in 1.1) Reactions were incubated for 1 h on a rolling platform. After this time, beads were washed 20 times as described in 1.1 and finally phage were eluted from the beads over 5 minutes using a solution containg ligand (10 μM Distamycin A, or 1 μM Actinomycin D in PBS/Zn).
The actinomycin D sensitive clone was selected with the DNA target AGCTTGGCG and its helices were sequenced as: […]

[2] = test system: DNA sequence AAAAAGGCG; assay: Phage ELISA: zinc finger phage binding to DNA with and without distamycin A; conditions: DNA concentration constant at 2 nM
[3] = test system: DNA target AAAAAGCGGAAAAA; assay: Dissociation of zinc finger phage from its DNA target by distamycin A; format: binding
Description: as §1, §2
Some phage isolated by either of the above methods (a or b) bound DNA in the absence of ligand but could be displaced by concentrations of distamycin A at 10 μM and actinomycin D at 1 μM. The distamycin sensitive clone was selected using the DNA target AAAAAGCGGAAAAA (SEQ ID NO:48) and its helices were sequenced as: […]

[4] = test system: CAT reporter gene downstream of the sequence AAAAAAGGCG; assay: Transient transfection CAT reporter assay; format: cell-based; conditions: in the presence of Distamycin A; zinc finger-HSV VP16 fusion cotransfected

SMILES: Cc1c2oc3c(C)ccc(C(=O)N[C@@H]4C(=O)N[C@H](C(C)C)C(=O)N5CCC[C@H]5C(=O)N(C)CC(=O)N(C)[C@@H](C(C)C)C(=O)O[C@@H]4C)c3nc-2c(C(=O)N[C@@H]2C(=O)N[C@H](C(C)C)C(=O)N3CCC[C@H]3C(=O)N(C)CC(=O)N(C)[C@@H](C(C)C)C(=O)O[C@@H]2C)c(N)c1=O [actinomycin D] (I: T[dV]P[Sar][NMeV] / II: T[dV]P[Sar][NMeV]; ester I:1-I:C, II:1-II:C; linker I:N-II:N via Actinocin(9to1))
- effect of ligand on phage binding to specific DNA sequence ([1]; FIG. 6): dissociated from the DNA
- ligand concentration that displaces DNA-bound phage ([1]; actinomycin D sensitive clone): 1 µM

SMILES: Cn1cc(NC(=O)c2cc(NC(=O)c3cc(NC=O)cn3C)cn2C)cc1C(=O)NCCC(=N)N [distamycin A]
- ligand concentration at which phage retention is close to background level [2]: ≤ 10^−9 M
- effect of ligand on phage binding to specific DNA sequence ([3]; FIG. 6): dissociated from the DNA
- ligand concentration that displaces DNA-bound phage ([3]; distamycin sensitive clone): 10 µM
- CAT gene expression [4]: CAT expression is observed
